Laboratory results reported in PubChem BioAssay AID2060886 (Molecular Pharmacology Branch, DTP, NCI, 2025).
pIC50: −log10 of the molar value.

Tested on: 653999-131-R-J2-PDC complex spheroids, growth inhibition
Assay: Anticancer human tumor 653999-131-R-J2-PDC patient-derived lung adenocarcinoma cell line growth inhibition [RAS]
Conditions: for pIC50: curve of first compound; for viability, T/C: stronger effect = lower value
How it was run: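 Agents were tested in combination matrices in half-log decrements from a top concentration at or near clinical Cmax (10 microM if undetermined). Targets were multi-cell spheroids of tumour lines plus HUVEC and MSC stromal cells.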
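Further: spheroids exposed to the agents for seven days before the readout.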

Compound: CC(C)n1nc(-c2ccc3oc(N)nc3c2)c2c(N)ncnc21 + C#Cc1c(F)ccc2cc(O)cc(-c3ncc4c(N5CC6CCC(C5)N6)nc(OCC56CCCN5CC(F)C6)nc4c3F)c12
- pIC50 (second compound 0.0316 µM): 7.87
- pIC50 (second compound 0.1 µM): 8.07
- pIC50 (second compound 0.316 µM): 8.60
- pIC50 (second compound 1 µM): > 9.50
- pIC50 (second compound 3.16 µM): > 9.50
- pIC50 (second compound 10 µM): > 9.50
- viability, T/C (second compound 0.0316 µM, first compound 0.000316 µM): 97.1%
- viability, T/C (second compound 0.0316 µM, first compound 0.001 µM): 97.5%
- viability, T/C (second compound 0.0316 µM, first compound 0.00316 µM): 74.1%
- viability, T/C (second compound 0.0316 µM, first compound 0.01 µM): 57.8%
- viability, T/C (second compound 0.0316 µM, first compound 0.0316 µM): 34.1%
- viability, T/C (second compound 0.0316 µM, first compound 0.1 µM): 24.7%
- viability, T/C (second compound 0.1 µM, first compound 0.000316 µM): 94.5%
- viability, T/C (second compound 0.1 µM, first compound 0.001 µM): 99.5%
- viability, T/C (second compound 0.1 µM, first compound 0.00316 µM): 68.3%
- viability, T/C (second compound 0.1 µM, first compound 0.01 µM): 49%
- viability, T/C (second compound 0.1 µM, first compound 0.0316 µM): 28.1%
- viability, T/C (second compound 0.1 µM, first compound 0.1 µM): 21.3%
- viability, T/C (second compound 0.316 µM, first compound 0.000316 µM): 78%
- viability, T/C (second compound 0.316 µM, first compound 0.001 µM): 48.8%
- viability, T/C (second compound 0.316 µM, first compound 0.00316 µM): 57.9%
- viability, T/C (second compound 0.316 µM, first compound 0.01 µM): 35.3%
- viability, T/C (second compound 0.316 µM, first compound 0.0316 µM): 20.2%
- viability, T/C (second compound 0.316 µM, first compound 0.1 µM): 16.2%
- viability, T/C (second compound 1 µM, first compound 0.000316 µM): 42.1%
- viability, T/C (second compound 1 µM, first compound 0.001 µM): 38.6%
- viability, T/C (second compound 1 µM, first compound 0.00316 µM): 32.3%
- viability, T/C (second compound 1 µM, first compound 0.01 µM): 27.1%
- viability, T/C (second compound 1 µM, first compound 0.0316 µM): 16.1%
- viability, T/C (second compound 1 µM, first compound 0.1 µM): 10.1%
- viability, T/C (second compound 3.16 µM, first compound 0.000316 µM): 42%
- viability, T/C (second compound 3.16 µM, first compound 0.001 µM): 43.8%
- viability, T/C (second compound 3.16 µM, first compound 0.00316 µM): 24.3%
- viability, T/C (second compound 3.16 µM, first compound 0.01 µM): 20.1%
- viability, T/C (second compound 3.16 µM, first compound 0.0316 µM): 10.5%
- viability, T/C (second compound 3.16 µM, first compound 0.1 µM): 8.31%
- viability, T/C (second compound 10 µM, first compound 0.000316 µM): 22.6%
- viability, T/C (second compound 10 µM, first compound 0.001 µM): 27.4%
- viability, T/C (second compound 10 µM, first compound 0.00316 µM): 17%
- viability, T/C (second compound 10 µM, first compound 0.01 µM): 11.6%
- viability, T/C (second compound 10 µM, first compound 0.0316 µM): 7.55%
- viability, T/C (second compound 10 µM, first compound 0.1 µM): 5.84%

Compound: CCc1c2c(nc3ccc(O)cc13)-c1cc3c(c(=O)n1C2)COC(=O)[C@]3(O)CC + CCn1c(-c2cccnc2C(C)OC)c2c3cc(ccc31)N1CCOC(CC(NC(=O)C(C(C)C)N(C)C(=O)C3(F)CCN(C(=O)C#CC(C)(C)N(C)C)CC3)C(=O)N3CCCC(N3)C(=O)OCC(C)(C)C2)C1
- pIC50 (second compound 0.000949 µM): 7.88
- pIC50 (second compound 0.003 µM): 7.90
- pIC50 (second compound 0.00949 µM): 7.83
- pIC50 (second compound 0.03 µM): 7.97
- pIC50 (second compound 0.0949 µM): 8.11
- pIC50 (second compound 0.3 µM): 8.25
- viability, T/C (second compound 0.000949 µM, first compound 0.000949 µM): 92.6%
- viability, T/C (second compound 0.000949 µM, first compound 0.003 µM): 84.4%
- viability, T/C (second compound 0.000949 µM, first compound 0.00949 µM): 52%
- viability, T/C (second compound 0.000949 µM, first compound 0.03 µM): 35.9%
- viability, T/C (second compound 0.000949 µM, first compound 0.0949 µM): 30%
- viability, T/C (second compound 0.000949 µM, first compound 0.3 µM): 16.7%
- viability, T/C (second compound 0.003 µM, first compound 0.000949 µM): 86%
- viability, T/C (second compound 0.003 µM, first compound 0.003 µM): 77.3%
- viability, T/C (second compound 0.003 µM, first compound 0.00949 µM): 52.8%
- viability, T/C (second compound 0.003 µM, first compound 0.03 µM): 35.9%
- viability, T/C (second compound 0.003 µM, first compound 0.0949 µM): 28%
- viability, T/C (second compound 0.003 µM, first compound 0.3 µM): 20.4%
- viability, T/C (second compound 0.00949 µM, first compound 0.000949 µM): 104%
- viability, T/C (second compound 0.00949 µM, first compound 0.003 µM): 84.1%
- viability, T/C (second compound 0.00949 µM, first compound 0.00949 µM): 55.2%
- viability, T/C (second compound 0.00949 µM, first compound 0.03 µM): 37.8%
- viability, T/C (second compound 0.00949 µM, first compound 0.0949 µM): 28.7%
- viability, T/C (second compound 0.00949 µM, first compound 0.3 µM): 17.3%
- viability, T/C (second compound 0.03 µM, first compound 0.000949 µM): 91.8%
- viability, T/C (second compound 0.03 µM, first compound 0.003 µM): 75.7%
- viability, T/C (second compound 0.03 µM, first compound 0.00949 µM): 51.9%
- viability, T/C (second compound 0.03 µM, first compound 0.03 µM): 31.4%
- viability, T/C (second compound 0.03 µM, first compound 0.0949 µM): 22.3%
- viability, T/C (second compound 0.03 µM, first compound 0.3 µM): 16.3%
- viability, T/C (second compound 0.0949 µM, first compound 0.000949 µM): 90.6%
- viability, T/C (second compound 0.0949 µM, first compound 0.003 µM): 66.4%
- viability, T/C (second compound 0.0949 µM, first compound 0.00949 µM): 47.5%
- viability, T/C (second compound 0.0949 µM, first compound 0.03 µM): 29.9%
- viability, T/C (second compound 0.0949 µM, first compound 0.0949 µM): 19.3%
- viability, T/C (second compound 0.0949 µM, first compound 0.3 µM): 12.4%
- viability, T/C (second compound 0.3 µM, first compound 0.000949 µM): 81%
- viability, T/C (second compound 0.3 µM, first compound 0.003 µM): 57.8%
- viability, T/C (second compound 0.3 µM, first compound 0.00949 µM): 44.9%
- viability, T/C (second compound 0.3 µM, first compound 0.03 µM): 26.3%
- viability, T/C (second compound 0.3 µM, first compound 0.0949 µM): 17.6%
- viability, T/C (second compound 0.3 µM, first compound 0.3 µM): 11.5%
